Results: ChEMBL document CHEMBL3046494, “Identification of liver X receptor and farnesoid X receptor dual agonists from Tithonia diversifolia” (Med Chem Res, 2013)
The source made the active and inactive calls. The calls are words filed in the database; no cut-off is given here.

How the values were obtained:
Format in all cases: cell-based
[1] = biological target: T1, Bile acid receptor (Homo sapiens) (UniProt Q96RI1); assay: Agonist activity at Homo sapiens (human) FXR ligand binding domain expressed in HepG2 cells assessed as transactivation of GAL4 gene expression at 1 uM after 48 hr by luciferase reporter gene assay relative to control
T1 sequence (whole entry): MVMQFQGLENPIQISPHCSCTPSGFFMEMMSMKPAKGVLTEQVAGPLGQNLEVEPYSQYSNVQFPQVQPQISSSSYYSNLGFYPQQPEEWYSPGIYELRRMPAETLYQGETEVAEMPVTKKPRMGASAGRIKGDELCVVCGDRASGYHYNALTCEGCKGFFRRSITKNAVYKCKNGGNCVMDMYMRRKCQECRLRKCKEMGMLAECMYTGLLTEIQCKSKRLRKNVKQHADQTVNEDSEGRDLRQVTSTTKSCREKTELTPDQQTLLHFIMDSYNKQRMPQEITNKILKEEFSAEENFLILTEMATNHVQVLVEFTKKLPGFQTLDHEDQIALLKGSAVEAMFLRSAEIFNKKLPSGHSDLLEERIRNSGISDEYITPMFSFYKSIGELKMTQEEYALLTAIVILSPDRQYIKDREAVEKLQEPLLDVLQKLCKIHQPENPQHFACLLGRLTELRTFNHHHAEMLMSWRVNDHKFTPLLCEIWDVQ

[2] = biological target: T2, Oxysterols receptor LXR-beta (Homo sapiens) (UniProt P55055); assay: Agonist activity at Homo sapiens (human) LXRbeta expressed in HepG2 cells assessed as transactivation of ABCA1 gene expression after 48 hr by luciferase reporter gene assay
T2 sequence (whole entry): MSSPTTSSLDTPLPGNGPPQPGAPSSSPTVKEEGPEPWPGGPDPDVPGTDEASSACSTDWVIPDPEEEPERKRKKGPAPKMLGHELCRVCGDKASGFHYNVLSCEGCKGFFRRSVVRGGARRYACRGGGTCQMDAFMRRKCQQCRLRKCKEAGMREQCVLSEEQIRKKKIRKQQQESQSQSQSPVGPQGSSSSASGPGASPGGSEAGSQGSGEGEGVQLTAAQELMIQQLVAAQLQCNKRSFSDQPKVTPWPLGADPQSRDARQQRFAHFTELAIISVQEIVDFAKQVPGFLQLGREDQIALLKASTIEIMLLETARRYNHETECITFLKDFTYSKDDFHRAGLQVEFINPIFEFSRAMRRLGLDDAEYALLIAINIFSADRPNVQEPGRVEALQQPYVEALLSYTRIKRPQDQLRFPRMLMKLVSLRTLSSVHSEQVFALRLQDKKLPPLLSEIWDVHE

[3] = biological target: T2, Oxysterols receptor LXR-beta (Homo sapiens); assay: Agonist activity at Homo sapiens (human) LXRbeta expressed in HepG2 cells assessed as transactivation of ABCA1 gene expression at 1 uM after 48 hr by luciferase reporter gene assay relative to control
[4] = biological target: T3, Oxysterols receptor LXR-alpha (Homo sapiens) (UniProt Q13133); assay: Agonist activity at Homo sapiens (human) LXRalpha expressed in HepG2 cells assessed as decrease in PEPCK gene transactivation at 10 uM after 48 hr by luciferase reporter gene assay relative to control; parameters: scale not given: the % may be the effect or the level left
T3 sequence (whole entry): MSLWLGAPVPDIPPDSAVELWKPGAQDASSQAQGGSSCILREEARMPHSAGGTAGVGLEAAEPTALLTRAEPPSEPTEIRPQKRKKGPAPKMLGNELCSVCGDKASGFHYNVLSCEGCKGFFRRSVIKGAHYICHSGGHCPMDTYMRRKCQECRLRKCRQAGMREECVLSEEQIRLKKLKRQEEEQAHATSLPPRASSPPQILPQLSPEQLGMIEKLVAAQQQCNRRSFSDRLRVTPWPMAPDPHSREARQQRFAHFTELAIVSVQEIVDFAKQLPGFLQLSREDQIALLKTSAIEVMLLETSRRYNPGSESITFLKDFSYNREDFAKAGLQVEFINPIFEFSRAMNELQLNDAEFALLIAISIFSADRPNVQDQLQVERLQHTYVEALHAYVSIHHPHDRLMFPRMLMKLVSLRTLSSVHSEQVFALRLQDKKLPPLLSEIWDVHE

[5] = biological target: T3, Oxysterols receptor LXR-alpha (Homo sapiens); assay: Agonist activity at Homo sapiens (human) LXRalpha expressed in HepG2 cells assessed as transactivation of SREBP1c gene expression at 1 uM after 48 hr by luciferase reporter gene assay relative to control
[6] = biological target: T1, Bile acid receptor (Homo sapiens); assay: Agonist activity at Homo sapiens (human) FXR ligand binding domain expressed in HepG2 cells assessed as transactivation of SHP gene expression at 10 uM after 48 hr by luciferase reporter gene assay relative to control
[7] = biological target: T3, Oxysterols receptor LXR-alpha (Homo sapiens); assay: Agonist activity at Homo sapiens (human) LXRalpha expressed in HepG2 cells assessed as PEPCK gene expression at 100 nM after 48 hr by luciferase reporter gene assay relative to control
[8] = biological target: T2, Oxysterols receptor LXR-beta (Homo sapiens); assay: Agonist activity at Homo sapiens (human) LXRbeta expressed in HepG2 cells assessed as transactivation of ABCA1 gene expression at 10 uM after 48 hr by luciferase reporter gene assay relative to control
[9] = biological target: T3, Oxysterols receptor LXR-alpha (Homo sapiens); assay: Agonist activity at Homo sapiens (human) LXRalpha expressed in HepG2 cells assessed as transactivation of SREBP1c gene expression after 48 hr by luciferase reporter gene assay
[10] = biological target: T1, Bile acid receptor (Homo sapiens); assay: Agonist activity at Homo sapiens (human) FXR ligand binding domain expressed in HepG2 cells assessed as transactivation of GAL4 gene expression at 100 nM after 48 hr by luciferase reporter gene assay relative to control
[11] = biological target: T3, Oxysterols receptor LXR-alpha (Homo sapiens); assay: Agonist activity at Homo sapiens (human) LXRalpha expressed in HepG2 cells assessed as transrepression of PEPCK gene expression after 48 hr by luciferase reporter gene assay
[12] = biological target: T3, Oxysterols receptor LXR-alpha (Homo sapiens); assay: Agonist activity at Homo sapiens (human) LXRalpha expressed in HepG2 cells assessed as transactivation of SREBP1c gene expression at 10 uM after 48 hr by luciferase reporter gene assay relative to control
[13] = biological target: T1, Bile acid receptor (Homo sapiens); assay: Agonist activity at Homo sapiens (human) FXR ligand binding domain expressed in HepG2 cells assessed as transactivation of SHP gene expression at 100 nM after 48 hr by luciferase reporter gene assay relative to control
HepG2 = assay: Cytotoxicity against Homo sapiens (human) HepG2 cells after 48 hr; details: hepg2, 48 h
[14] = biological target: T3, Oxysterols receptor LXR-alpha (Homo sapiens); assay: Agonist activity at Homo sapiens (human) LXRalpha expressed in HepG2 cells assessed as transactivation of ABCA1 gene expression at 10 uM after 48 hr by luciferase reporter gene assay relative to control
[15] = biological target: T3, Oxysterols receptor LXR-alpha (Homo sapiens); assay: Agonist activity at Homo sapiens (human) LXRalpha expressed in HepG2 cells assessed as transactivation of CYP7A1 gene expression at 10 uM after 48 hr by luciferase reporter gene assay relative to vehicle-treated control
[16] = biological target: T3, Oxysterols receptor LXR-alpha (Homo sapiens); assay: Agonist activity at Homo sapiens (human) LXRalpha expressed in HepG2 cells assessed as transactivation of ABCA1 gene expression after 48 hr by luciferase reporter gene assay

Compound	fold change (FC) [1]	Activity [2]	fold change (FC) [3]	Activity [4] [%]	fold change (FC) [5]	fold change (FC) [6]	Activity [7]	fold change (FC) [8]	Activity [9]	Activity [10]	Activity [11]	fold change (FC) [12]	Activity [13]	Activity (HepG2)	fold change (FC) [14]	fold change (FC) [15]	Activity [16]	fold change (FC) [7]
C=C1C(=O)O[C@@H]2C[C@H](C)[C@@]3(O)C[C@H](O)[C@@](C)(C[C@@H](OC(=O)C(C)C)[C@@H]12)O3 [TAGITININ A]	1.6	Dose-dependent effect	1.5	58	2.26	2.3	inactive	1.5	Dose-dependent effect	inactive	Dose-dependent effect	3.42	inactive	Non-toxic	1.9	2	Dose-dependent effect	
C=C1C(=O)O[C@@H]2C[C@H](C)[C@@]3(O)CC[C@@](C)(C[C@@H](OC(=O)C(C)C)[C@@H]12)O3 [TIROTUNDIN]	1.6	Dose-dependent effect	1.5	46	2.3	2.41		2.2	Dose-dependent effect	inactive	Dose-dependent effect	4.52	inactive	Non-toxic	1.7	2	Dose-dependent effect	0.94
C=C1C(=O)O[C@@H]2/C=C(/C)C(=O)/C=C/[C@](C)(O)C[C@@H](OC(=O)C(C)C)[C@@H]12 [TAGITININ C]														Toxic				
